Reference: patent publication US5208243A, “5-isoquinolinesulfonamides” (Adir et Compagnie, priority 1991, dated 1993)

What was measured:
rat aortas = assay: Contraction of rat aortas induced by potassium depolarization (hyperpotassium medium); design: species or system WISTAR rat; settings: read-out: IC50 (concentration inhibiting by 50% the contraction of rat aortas induced by potassium depolarization)
Source text: The rings are linked to a STATHAM tension sensor (UC2-GOULD).

rabbit aorta [1] = assay: Contraction of rabbit aorta induced by noradrenaline in a normal physiological medium; design: species or system New Zealand rabbit; settings: Oryctolagus cuniculus, noradrenaline 10^-6 M, read-out: IC50, noradrenaline stimulus
Procedure: (§1) Studies are carried out on rings, 3 mm in length, […] The vascular rings are immersed in a normal physiological solution or in a physiological solution lacking calcium (+0.2 mM of the chelating agent EGTA), which is thermostatically regulated at 37° C. and aerated with a 95% O2 +5% CO2 mixture. The rings are linked to a STATHAM tension sensor (UC2-GOULD). The optimal tension for each vessel is applied and a stabilization period of 90 min is observed for the preparations. a) Antivasoconstrictive activity of the compounds of the invention in a physiological medium.

rabbit mesenteric artery = assay: Contraction of rabbit mesenteric artery induced by electrical stimulation; design: species or system New Zealand rabbit; settings: Oryctolagus cuniculus, normal physiological medium
Procedure: as §1

rabbit aorta [2] = assay: Contraction of rabbit aorta induced by endothelin in a normal physiological medium; design: species or system New Zealand rabbit; settings: Oryctolagus cuniculus, read-out: IC50, endothelin stimulus
Procedure: as §1

rabbit aorta [3] = assay: Contraction of rabbit aorta induced by angiotensin II in a medium without calcium; design: species or system New Zealand rabbit; settings: Oryctolagus cuniculus, 10^-5 M, medium lacking calcium
Procedure: as §1, with “b)” for “a)”, “medium without calcium.” for “physiological medium.”

rabbit aorta [4] = assay: Contraction of rabbit aorta induced by endothelin in a medium without calcium; design: species or system New Zealand rabbit; settings: Oryctolagus cuniculus, 10^-5 M, medium lacking calcium
Procedure: as §1, with “b)” for “a)”, “medium without calcium.” for “physiological medium.”

rabbit aorta [5] = assay: Contraction of rabbit aorta induced by phorbol ester in a medium without calcium; design: species or system New Zealand rabbit; settings: Oryctolagus cuniculus, 10^-5 M, medium lacking calcium
Procedure: as §1, with “b)” for “a)”, “medium without calcium.” for “physiological medium.”

Rabbit iliac artery = assay: Contraction of rabbit iliac artery induced by caffeine in a medium without calcium; design: species or system New Zealand rabbit; settings: Oryctolagus cuniculus, 10^-5 M, medium lacking calcium
Procedure: as §1, with “b)” for “a)”, “medium without calcium.” for “physiological medium.”

isolated heart = assay: Isolated heart subjected to hypoxia-reoxygenation; design: species or system WISTAR rat; settings: after 30 minutes of reoxygenation
Procedure: The heart is removed from WISTAR rats (325-375 g). The heart is rapidly perfused according to the technique of LANGENDORFF at a constant pressure of 101.310^2 Pa and electrically stimulated at 5 Hz. Isovolumetric contractions are recorded by means of a polyethylene ballonet linked to a pressure sensor (P23-GOULD) introduced into the left ventricle and inflated so as to obtain a diastolic pressure of between 6.710^2 and 13.310^2 Pa. c) Protective effect of the compounds of the invention on an isolated heart subjected to hypoxia-reoxygenation. An experimental procedure similar to that described in the preceding test is followed, the ischemia-reperfusion stage being replaced by a 60 min hypoxia produced by the administration of a 95% N2 +5% CO2 gaseous mixture during this period and followed by a 30 min reoxygenation. The test compounds are incubated for 15 min before and during the period of hypoxia.

[6] = test system: pressor effects of phenylephrine, angiotensin II and vasopressin; assay: Cardiovascular reactivity to vasopressors in wakeful rats, intravenous administration; format: in vivo, WISTAR rat; settings: 10 mg/kg intravenously
Procedure: a) Effects of the compounds of the invention, administered intravenously, on cardiovascular reactivity to various vasopressors.
(§2) After a 30 to 60 min period of stabilization of wakeful WISTAR rats, a range of concentrations of phenylephrine (between 0 and 16 μg/kg) is injected intravenously.
(§3) Reading of the mean blood pressure and heart rate is carried out at the point where the pressor effect reaches its maximum. After a washing time of at least 2 hours, the test compound is administered intravenously (10 mg/kg) followed 15 minutes later by a new range of phenylephrine.
The same procedure is used to study the compounds of the invention for the pressor effects induced by angiotensin II (0 to 200 ng/kg) and vasopressin (0 to 200 ng/kg). These studies are carried out on different groups of animals.

[7] = test system: vasopressor effect of phenylephrine; assay: Cardiovascular reactivity to phenylephrine in wakeful rats, oral administration; format: in vivo, WISTAR rat
Procedure: as §2, §3
b) Effects of the compounds of the invention, administered orally, on the cardiovascular reactivity of phenylephrine.
The procedure is carried out as above but the intravenous administration of the test compounds is replaced by oral administration (5, 10 and 20 mg/kg) of the test compound. The phenylephrine range is repeated 0.5, 1, 2, 3, 4, 5 and 6 hours after administration of the compound.

reperfusion arrhythmias = assay: Reperfusion arrhythmias after coronary ligature in rats; format: in vivo, WISTAR rat; settings: 2 mg/kg intravenous
Procedure: C/ Action of the compounds of the invention on reperfusion arrhythmias.
A thoracotomy and a coronary ligature are carried out on WISTAR rats. After stabilization for 10 min, 2 mg/kg of the test compound are administered intravenously. The blood pressure, the heart rate and the electrocardiogram are recorded. Five minutes after injecting the product, the coronary ligature is tightened.
After 5 minutes of stenosis, the ligature is removed and the electrocardiogram as well as the blood pressure are recorded for 10 consecutive minutes. The delay in the appearance of the various rhythm disorders as well as the mortality are measured.

[8] = test system: smooth muscle cells of the aorta; assay: Proliferation rate after endothelial denudation of the aorta (3H-thymidine incorporation); format: in vivo, WISTAR rat; settings: 10 mg/kg orally, daily
Procedure: D/ Effect of the compounds of the invention on the proliferation rate after endothelial denudation. […] After pretreatment for 6 days (J6), denudation of the aortic endothelium of the animals is performed according to the following method: After anesthetizing the animal with methohexital (Brietal, 60 mg/kg intraperitoneally), an embolectomy probe (Fogarty 2F) is introduced into the aorta through the left carotid. Aortic deendothelialization is achieved by three successive passages of the probe. Three days after the endothelial denudation (J9), the rats are sacrificed and the aorta is removed, incubated in a physiological solution for 1 hour at 37° C., and then transferred into a ^3 H-thymidine-enriched Krebs- Henseleit solution (specific activity: […]) for 1 hour at 37° C. This is followed by a one-hour post-incubation in a Krebs-Henseleit solution lacking ^3 H-thymidine. After washing in a Tris-EDTA buffer, the proliferation rate is calculated from the incorporation of 3H-thymidine. [drawing 17]

`CN(CC1CCN(CCCOc2ccc(F)cc2)CC1)S(=O)(=O)c1cccc2cnccc12.Cl.Cl` [Example 17, N-Methyl-N-{[1-[3-(p-fluorophenoxy)propyl]-4-piperidyl]methyl}-5-isoquinolinesulfonamide dihydrochloride] showed an IC50 (rat aortas) of 1500 nM, an IC50 (rabbit aorta [1]) of 1500 nM and an IC50 (rabbit mesenteric artery) of 100 nM. For the same compound, the IC50 (rabbit aorta [2]) was 3300 nM, the inhibition at 10 µM (rabbit aorta [3]) was 21% and the inhibition at 10 µM (rabbit aorta [4]) was 67%. The inhibition at 10 µM (rabbit aorta [5]) was 35%, the inhibition at 10 µM (Rabbit iliac artery) was 63% and the “increase of the contraction relative to the control hearts” value (isolated heart) was “more than 100%”. The “reduction of the pressure effect of phenylephrine” value [6] was 81%, the “reduction of the vasopressor effect of phenylephrine” value ([7]; 20 mg/kg oral, maximum after 2 hours) was 60% and the “time of appearance of the inhibitory activity” value ([7]; after oral administration) was 30 min. The “time of maximum inhibitory activity” value ([7]; after oral administration, 20 mg/kg) was 2 h, the “duration for which the inhibitory activity remains stable” value ([7]; oral) was 6 h and the “delay in the appearance of ventricular extrasystoles and tachycardias” value (reperfusion arrhythmias) was “very substantially delays the appearance of ventricular extrasystoles and tachycardias”. The “prevention of the appearance of ventricular fibrillations” value (reperfusion arrhythmias) was 100%, the mortality rate (reperfusion arrhythmias; control 4 deaths out of 9) was “zero” and the “reduction of the proliferation of smooth muscle cells” value [8] was 40%.
